Source: the pKa sets of Baltruschat and Czodrowski (2020)
Where a SMILES comes first, the peptide text is derived from it. [ ]: non-standard residue; d: D form. pGlu = O=C1CC[C@@H](C(=O)O)N1

Settings: acidic group

Row | Compound | pKa
1 | CC(=O)N(C)O | 8.73
2 | Cc1cccc([NH3+])c1C(=O)O | 3.2
3 | CCOc1ccccc1C(=O)O | 4.18
4 | CCCCNC(=O)NS(=O)(=O)c1ccc(C)cc1 | 5.3
5 | C[C@H](NC(=O)[C@@H]1CCC(=O)N1)C(=O)O ([pGlu]-Ala-OH) | 3.6
6 | C[n+]1ccccc1N | 12.2
7 | Cn1cnc2[nH]c(=O)[nH]c(=S)c21 | 6.8
8 | SCCNc1ccccc1 | 9.5
9 | N#Cc1ccc(O)cc1 | 7.89
10 | O=C(O)C1COCCO1 (stereo not given) | 3.15
11 | O=c1ccc2ccc(O)c(O)c2o1 | 6.9
12 | N#CC(C#N)=NNc1cccc(Cl)c1 | 6
13 | Oc1onc2c1CC[NH2+]CC2 | 3.3
14 | C=CCC1(C2=CCCCC2)C(=O)[N-]C(=S)NC1=O | 11.7
15 | C=C(C)[C@H]1C[NH2+][C@H](C(=O)O)[C@H]1CC(=O)OC | 1.95
16 | CC(=O)CN=O | 8.4
17 | OCC(S)CS (stereo not given) | 8.62
18 | Oc1nc2cc3ccccc3cc2[nH]1 | 11.6
19 | CN(C)/C=N/c1ccccc1O | 11
20 | C1COCCOCc2n[nH]c(n2)COCCOCCO1 | 9.55
21 | O=CCCCC(=O)O | 5.02
22 | [O-]c1cc([O-])cc(O)c1 | 14.1
23 | Nc1ccncn1 | 18.4
24 | O=[PH](O)C([NH2+]Cc1cc[nH+]cc1)c1ccccc1O (stereo not given) | 2.35
25 | O=C(O)CCCc1c[nH]c2ccccc12 | 4.82

Row | Compound | pKa
26 | O=C(O)[C@@H]1O[C@H](Oc2ccc3oc4cccc(O)c4c(=O)c3c2)[C@@H](O)[C@H](O)[C@H]1O | 3.94
27 | O=C(O)[C@@H]1CC[C@H](C(=O)O)[Se]1 | 3.55
28 | CC(C)=CCC1C(=O)C(CC=C(C)C)(CC=C(C)C)C(O)(C(=O)O)C1=O (stereo not given) | 3.9
29 | O=C(O)CCCP | 4.53
30 | N#CO | 3.67
31 | CC/C=C/Cc1nccn1[C@H](C(=O)[O-])C(C)(C)S | 10.4
32 | Cn1c(=O)[nH]c2nc[nH]c2c1=O | 7.88
33 | CSc1ccc(O)cc1 | 9.5
34 | Cc1cccc(Br)c1C(=O)O | 2.71
35 | Cc1cc(Cl)cc(Cl)c1O | 7.85
36 | Nc1ccc(S(=O)(=O)Nc2ncccn2)cc1 | 6.42
37 | O=S1(=O)N=CNc2cccnc21 | 6.94
38 | COc1cc2ccccc2cc1C(=O)O | 3.82
39 | Cc1nc2c(n1C)C(=O)c1nc[nH+]c(O)c1C2=O | 1.15
40 | O=C(O)Cn1c2ccccc2c2ccccc21 | 3.55
41 | Nc1nc2nc[nH]c2c(N)[n+]1[O-] | 9.7
42 | NNC(=O)c1cccnc1 | 11.5
43 | Cc1cc(C#N)cc(C)c1O | 8.27
44 | N[n+]1ccccc1O | 2.1
45 | CCCCCCCCc1c(-c2ccccc2)n[nH]c1O | 10.2
46 | CC(=O)CC(=O)c1ccccc1 | 8.69
47 | CCCCCC(=O)O | 4.85
48 | O/C(=C/c1cccnc1)c1ccccc1 | 8.79
49 | [NH3+]C(c1cccc(O)c1[O-])P(=O)([O-])[O-] (stereo not given) | 12.4
50 | CC1(C)NC(=S)NC1=O | 8.71

Row | Compound | pKa
51 | O=C(O)C1(C(=O)O)CC1 | 1.92
52 | Cn1c(=S)[nH]c2cc3c(cc21)CCCC3 | 10.8
53 | Oc1nccc[nH+]1 | 2.24
54 | CC(C)=C=CC(C)(C)C(=O)O | 4.7
55 | [NH3+][C@@H](Cc1nc(I)[nH]c1I)C(=O)[O-] | 8.18
56 | Cc1c[n+]([C@@H]2C[C@@H](O)[C@H](CO)O2)c(O)nc1NCCc1ccccc1 | 3.83
57 | OCc1ccc(O)cc1 | 9.82
58 | Cc1ccc(C(=O)O)c(Br)c1 | 3.09
59 | Cc1cnc(C(=O)O)s1 | 3.03
60 | C[Si](C)(C)CCCCC(=O)O | 4.96
61 | O=C1Cc2c1ccc(O)c2[N+](=O)[O-] | 3.98
62 | COc1cc(S(C)=O)ccc1-c1nc2ccnnc2[nH]1 (stereo not given) | 8.7
63 | CC(C)Cc1cnc(CC(C)C)c(O)[nH+]1 | 1.7
64 | O=C([O-])[C@H]1O[C@@H]1C(=O)O | 3.25
65 | O=S(=O)([O-])c1cc(O)c2cn[nH]c2c1 | 8.1
66 | COc1nc([N+](=O)[O-])n[nH]1 | 5.35
67 | CCOC(=O)c1n[nH]c2c(c1=O)c(=O)n(C)c(=O)n2C | 7.32
68 | CC=C=CC(C)(C)C(=O)O | 4.58
69 | CC[Si](C)(C)CC(=O)O | 5.4
70 | CCCC1(Br)C(=O)NC(=O)NC1=O | 6.6
71 | O=C(O)C(=O)c1ccccc1 | 1.22
72 | O=[Se](O)c1ccccc1 | 4.79
73 | Oc1cccc2c1CCC2 | 10.2
74 | O=C(O)CC(=O)/C=N/O | 3.5

Same assay, conditions: basic group

Row | Compound | pKa
75 | CC(O)[C@@H]1CN[C@H](C(=O)[O-])[C@H]1CC(=O)[O-] (stereo not given in full) | 10.1
76 | Cc1ccc2cccnc2c1 | 5.25
77 | O=C1N[C@@H](Cc2c[nH+]c[nH]2)C(=O)N[C@H]1Cc1cnc[nH]1 | 5.56
78 | NCCCCC#CC#CCCC(=O)[O-] | 10.5
79 | Cc1ncc2nccnc2n1 | 4.87
80 | CCCCCC(C)N (stereo not given) | 11.2
81 | CN1C[C@@H](C(=O)[O-])C[C@@]2(O)c3cccc4[nH]cc(c34)C[C@@H]12 | 9.2
82 | c1ccc(-c2ccnc3c2ccc2cccnc23)cc1 | 4.9
83 | Cn1cnc2[nH]c(=O)[nH]c(=S)c21 | 0.3
84 | c1ccc(-c2cc(-c3ccccc3)c(NCC[NH+]3CCOCC3)nn2)cc1 | 3.36
85 | SCCNc1ccccc1 | 3.78
86 | CCN(CC)CCNc1nc(C)cc(N)n1 | 9.8
87 | Nc1ccc(C(=O)c2ccc(N)cc2)cc1 | 2.92
88 | OC(CN1CCOCC1)C[NH+]1CCOCC1 | 5
89 | C=C(C)C(=O)OCCN(C)CCCC | 8.27
90 | COc1ccc2c(c1)cc(C)n2C | 0.25
91 | Nc1cc(/C=C/c2ccccc2)nc(/C=C/c2ccccc2)c1 | 8.6
92 | NC(=O)C(N)Cc1c[nH]cn1 (stereo not given) | 7.64
93 | C[NH2+]Cc1ccccn1 | 2.91
94 | N#CC(C#N)=NNc1cccc(Cl)c1 | -0.78
95 | CSc1nc(N)c2c(ncn2[C@H]2O[C@H](CO)[C@@H](O)[C@H]2O)n1 | 3.1
96 | CCC(N)(CO)CO | 8.8

Row | Compound | pKa
97 | C[C@@H]1CC[C@@H]2CCCN21 | 12
98 | OCCN(CCO)c1ccccc1 | 4.11
99 | Nc1ccnc(-c2cccc(Cl)n2)c1 | 7.7
100 | Nc1cnc2cc3ccccc3cc2c1 | 4.78
101 | Cc1cc(-c2ccccc2)nn2cc(C[NH+]3CCOCC3)nc12 | 1.5
102 | CCOc1ccc(N)cc1 | 5.25
103 | Cc1nccnc1C | 2.24
104 | Cc1nc(N)c2cnn(C)c2n1 | 5
105 | Cc1cc(-c2ccc([NH3+])c(C)c2)ccc1N | 3.38
106 | NCCCCCCCCCCCCN | 10.8
107 | CN(C)/C=N/c1ccccc1O | 7.41
108 | c1ccc2c(c1)N1CCN2CC1 | 5.65
109 | COc1c(Cl)cc(Cl)c([O-])c1C(=O)NC1CCN(C)CC1 | 9.12
110 | CCN1CC(O[Si](C)(C)C)C1 | 8.68
111 | NCCc1ccncc1 | 9.37
112 | CCc1ccnc2c1ccc1c(CC)ccnc12 | 5.6
113 | Cc1ncnc2ccccc12 | 2.52
114 | Cc1cccc(CO)n1 | 5.2
115 | C[NH+](C)c1ccc(N)cc1 | 3.73
116 | C1COCCOCc2n[nH]c(n2)COCCOCCO1 | 2.36
117 | NCCC[n+]1ccc2ccccc2c1 | 8.97
118 | Cc1cc(Br)cc(C)c1N(C)C | 4.36

Row | Compound | pKa
119 | CC(O)CNCCN (stereo not given) | 9.86
120 | Cc1cc2ncn([C@H]3OC[C@H](O)[C@H](O)[C@@H]3O)c2cc1C | 4.7
121 | CCC(C)C(=O)CCN1CCOCC1 (stereo not given) | 7.07
122 | NCC(=O)Nc1ccccc1 | 8.12
123 | Nc1ccncn1 | 5.7
124 | Cn1cc(N)cc1C(=O)[O-] | 7
125 | c1ccc(Nc2ccccc2)cc1 | 0.76
126 | CCN1[C@@H](C)[C@@H]1C (stereo not given in full) | 9.41
127 | c1cnc2c(c1)ccc1c3c(cnc12)CCC3 | 5.78
128 | CC(C=C(c1cccs1)c1cccs1)N1CCCCCC1 (stereo not given) | 7.96
129 | CC(CO)CN(C)C (stereo not given) | 9.75
130 | CCN(CC)[C@H]1CCC[C@@H]1N(C)C | 9.91
131 | CSC(=N)c1ccccc1 | 5.84
132 | c1nc2c(ccc3c4c(cnc32)CCCC4)c2c1CCCC2 | 6.23
133 | [NH3+]Cc1ccncc1 | 4.05
134 | CC/C=C/Cc1nccn1[C@H](C(=O)[O-])C(C)(C)S | 7.2
135 | Cn1c(=O)[nH]c2nc[nH]c2c1=O | 1.19
136 | CC(=O)Nc1ccc(N)cc1 | 4.46
137 | CCCNC(C)C | 11
138 | Cc1cnccc1N | 9.15
139 | ClCC1CN2CCC1CC2 (stereo not given) | 10.2
140 | Nc1ccc(S(=O)(=O)Nc2ncccn2)cc1 | 2

Row | Compound | pKa
141 | c1ccc(-c2ccc(NCC[NH+]3CCOCC3)nn2)cc1 | 3.74
142 | C#CCCCCN(C)C | 9.24
143 | O=C(NCCCN1CCOCC1)c1ccc(Cl)cc1 | 6.81
144 | C[NH+](C)CCC/N=C(\c1ccccc1)c1ccccc1-c1ccccc1 | 4.43
145 | [S-]CCNCc1ccccc1 | 10.3
146 | Nc1nc2nc[nH]c2c(N)[n+]1[O-] | 3.7
147 | Cc1cc(C)c(CO)c(C)n1 | 7.1
148 | NNC(=O)c1cccnc1 | 3.27
149 | CN1CCN(C(=O)c2ccccc2)CC1 | 6.78
150 | CN(C)CCCCC(=O)Oc1ccccc1 | 10
151 | CC(CN)C(=O)[O-] (stereo not given) | 9.91
152 | c1cc(N2CCCC2)c2c(N3CCCC3)cccc2c1 | 9.97
153 | CC1=C(CC(C)[NH2+]CC(O)c2ccc(N)cc2)CCC1(C)C (stereo not given) | 3.69
154 | CC(C)[C@@H]1CC[C@@H](C)C[C@@H]1N | 10.5
155 | NC(=O)NOCCC(N)C(=O)[O-] (stereo not given) | 8.9
156 | CCC(=O)C(c1ccccc1)(c1ccccc1)C(C)CN1CCOCC1 (stereo not given) | 7.12
157 | O/C(=C/c1cccnc1)c1ccccc1 | 5.84
158 | O=Cc1cccnc1 | 3.73
159 | NCC(=O)[O-] | 9.65
160 | C[C@@H]1CNC[C@H](C)N1 | 9.86
161 | NC(=S)C(N)Cc1ccccc1 (stereo not given) | 7.15
162 | CNC(=O)/C=C(\c1ccc2nc(N)n(C3CCCC3)c2c1)c1ccccc1F | 6.7

Row | Compound | pKa
163 | Cc1ccccc1/C(=N\CCCN(C)C)c1ccccc1Cl | 8.95
164 | Cc1cnc2c([S-])ncnc2n1 | 7.02
165 | CCCCNCc1ccccc1 | 9.46
166 | [NH3+][C@@H](Cc1nc(I)[nH]c1I)C(=O)[O-] | 2.72
167 | O=C1CC2OCC=C3C4CC5N(CCC56c5ccccc5N1C6C24)[C@H]3S(=O)(=O)[O-] (stereo not given in full) | 3.2
168 | N=C(N)NOCC(=O)[O-] | 7.58
169 | CC(C)(N)CO | 9.74
170 | COc1cc(S(C)=O)ccc1-c1nc2ccnnc2[nH]1 (stereo not given) | 3.63
171 | CCO[Si](C)(CN)OCC | 9.19
172 | C=CC(=O)NC(C)(C)CCN(CC)CC | 10.1
173 | Nc1ccncc1F | 4.77
174 | CN(CC1CO1)CC1CO1 (stereo not given) | 6.45
175 | Cn1c2ccccc2c(=N)c2ccccc21 | 11
176 | CC(C)NCC(O)COc1ccccc1 (stereo not given) | 9.45
177 | O=[Se](O)c1ccccc1 | -0.9
178 | NC1CC1 | 9.1
179 | CC(C)N1CCCCC1 | 11
180 | [O-]c1cc2ccccc2nn1 | 8.61
